From PubChem BioAssay (NCI) come the findings set out here.

Molecules are shown by their SMILES.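 Cultured in 96-well plates, cells were exposed to test compound for 48 hours across five concentrations. The concentration for 50% growth inhibition is given as GI50. TGI marks complete inhibition of growth.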

Test systems include A549 NSCLC; BT-549 breast; CAKI-1 renal; HCT-15 colon; HL-60(TB) leukemia; KM12 colon; SF-539 CNS.
Holding throughout (test): growth of human tumour cells (NCI), 48 h

Consider `C=C1c2nc3ccccc3n2C=C(c2ccc(Cl)cc2)N1c1ccc(OC)cc1`, for which the TGI with A549 NSCLC was 30.4 µM; in the assay with BT-549 breast, 6.88 µM; in the assay with CAKI-1 renal, 19.1 µM; in the assay with HCT-15 colon, 22.5 µM; in the assay on HL-60(TB) leukemia, more than 100 µM; with KM12 colon it was 18.7 µM. Besides, the TGI in the assay on SF-539 CNS is 19.2 µM.

As to `C[C@]12CC[C@@H]3c4cc(I)c(O)cc4CC[C@H]3[C@@H]1CC[C@@H]2O`, the TGI in the assay with A549 NSCLC was 25.1 µM; in the assay on BT-549 breast it was 25.1 µM; with CAKI-1 renal, 27 µM; in the assay with HCT-15 colon, 8.78 µM; in the assay on HL-60(TB) leukemia it was more than 33.4 µM; in the assay with KM12 colon it was 13.2 µM. Besides, the TGI in the assay with SF-539 CNS is 7.76 µM. Besides, the GI50 in the assay on SF-539 CNS was 3.02 µM.

Regarding `CCOC(=O)C1CCC(=O)N1C(=O)c1ccccc1` (configuration not stated), the TGI with A549 NSCLC, in the assay on BT-549 breast, in the assay on CAKI-1 renal, with HCT-15 colon, with HL-60(TB) leukemia and in the assay with KM12 colon was more than 100 µM in each case. The compound further came in with a TGI with SF-539 CNS of more than 100 µM.

As for `CCCCn1c(-c2ccc([N+](=O)[O-])cc2)cs/c1=N/N=C1\C(=O)Nc2ccc(Br)cc21`, the TGI was 85.8 µM in the assay on A549 NSCLC; 51.6 µM in the assay with BT-549 breast; 63.2 µM in the assay with CAKI-1 renal; more than 100 µM with HCT-15 colon; 85.9 µM with HL-60(TB) leukemia; 38.2 µM in the assay with KM12 colon. In the assay on SF-539 CNS, this compound came in with a TGI of 28 µM.

Consider `NS(=O)(=O)c1cccc(NC(=S)NC(=O)Nc2ccc(Cl)c(Cl)c2)c1`, for which the TGI was found to be 61.4 µM in the assay with A549 NSCLC; 32.1 µM with BT-549 breast; 33.6 µM in the assay on HCT-15 colon; 31.4 µM with KM12 colon; 38.1 µM in the assay on SF-539 CNS.

With `CCOC(=O)c1nnsc1NN`, the TGI with A549 NSCLC, in the assay on BT-549 breast, with CAKI-1 renal, in the assay with HCT-15 colon, with HL-60(TB) leukemia and in the assay with KM12 colon was more than 100 µM in each case. For the same compound, in the assay with SF-539 CNS, the TGI is more than 100 µM.

On to `COC(=O)C1(Cc2ccc3c(c2)CCC3)Cc2ccccc2C1`, for which the TGI was more than 100 µM in the assay on A549 NSCLC; more than 100 µM with BT-549 breast; more than 100 µM with CAKI-1 renal; more than 100 µM in the assay with HCT-15 colon; 42.4 µM with HL-60(TB) leukemia; more than 100 µM with KM12 colon. For the same compound, the TGI in the assay with SF-539 CNS is more than 100 µM.

Consider `CCOC(=O)c1nc2cc(C(F)(F)F)ccc2nc1Nc1ccc(C(=O)NC(C(=O)OCC)C(=O)OCC)cc1`, for which the TGI in the assay with BT-549 breast was 51.6 µM; in the assay with CAKI-1 renal, 37 µM; in the assay with HCT-15 colon, more than 100 µM; in the assay with HL-60(TB) leukemia, more than 100 µM; in the assay with KM12 colon, more than 100 µM.

For `CO[C@]12C[C@H](CNC(=O)c3ccc[nH]3)O[C@H]1NC(=O)N2`, the TGI in the assay with A549 NSCLC, with BT-549 breast, in the assay on CAKI-1 renal, with HCT-15 colon, in the assay with HL-60(TB) leukemia and with KM12 colon was more than 100 µM throughout. The TGI with SF-539 CNS was more than 100 µM.

For the compound `Oc1[nH]c2ccccc2c1N=NC(=S)Nc1ccc(Cl)cc1`, the TGI with A549 NSCLC was more than 100 µM; with CAKI-1 renal, 64 µM; in the assay with HCT-15 colon, more than 100 µM; with HL-60(TB) leukemia, more than 100 µM; in the assay on KM12 colon it was more than 100 µM; in the assay on SF-539 CNS, 82.3 µM.

For the compound `CCC(C(=O)C(=O)OC)P1(=O)OC(C)(C)CN1C(C)(C)C` (configuration not stated), the TGI with A549 NSCLC, with BT-549 breast, with CAKI-1 renal, in the assay with HCT-15 colon, with KM12 colon and in the assay on SF-539 CNS was more than 100 µM each time.

On to `C\C(=N/N=C1/C(=C\N(C)C)C(=O)NC(=O)N1C)c1ccc(Cl)cc1`, for which the TGI with A549 NSCLC, with BT-549 breast, with CAKI-1 renal, in the assay with HCT-15 colon, in the assay on KM12 colon and in the assay on SF-539 CNS was more than 100 µM each time.

As to `CC(=O)OC1CCC2C3CCc4c(C)ccc(OS(=O)(=O)c5ccccc5)c4C3CCC12C` (configuration not stated), the TGI with BT-549 breast, in the assay on CAKI-1 renal, in the assay with HCT-15 colon and in the assay on HL-60(TB) leukemia was more than 100 µM throughout.

For `Nc1nn2c(=O)c3ccccc3nc2s1`, the TGI in the assay with A549 NSCLC was more than 100 µM; with BT-549 breast it was 77.9 µM; in the assay with CAKI-1 renal, more than 100 µM; in the assay with HCT-15 colon, more than 100 µM; in the assay on KM12 colon, more than 100 µM; with SF-539 CNS, more than 100 µM.

In the case of `COc1cc2c(c(O)c1OC)C(=O)C(Cc1ccc(O)cc1)CO2` (configuration not stated), the TGI in the assay on A549 NSCLC is 60.7 µM; with CAKI-1 renal, 75.9 µM; in the assay with HCT-15 colon, more than 100 µM; with HL-60(TB) leukemia, 98.3 µM; in the assay on KM12 colon, more than 100 µM; with SF-539 CNS, 41.7 µM.

`Cc1ccc(C2=CC(=O)/C(=C\C(=O)c3ccc(Cl)cc3)O2)cc1`: the TGI with BT-549 breast was 5.54 µM; in the assay with CAKI-1 renal, 4.38 µM; in the assay with HCT-15 colon it was 35.3 µM; in the assay with HL-60(TB) leukemia, 4.74 µM; in the assay on KM12 colon, 42.9 µM; in the assay on SF-539 CNS, 55.1 µM.

Take `N#Cc1nc(C2CCC2)oc1N`: the TGI in the assay with A549 NSCLC, in the assay with CAKI-1 renal, with HCT-15 colon, with HL-60(TB) leukemia, in the assay on KM12 colon and in the assay with SF-539 CNS was more than 100 µM each time.

On to `O=C1c2ccccc2NC(=S)[C@@H]2CCCN12`, for which the TGI in the assay with A549 NSCLC, in the assay on BT-549 breast, in the assay with CAKI-1 renal, in the assay on HCT-15 colon, with KM12 colon and with SF-539 CNS was more than 100 µM in each case.

On to `N#Cc1nc(NC(=O)c2ccccc2C(=O)O)c(C#N)[nH]1`, for which the TGI in the assay on A549 NSCLC, with CAKI-1 renal, in the assay with HL-60(TB) leukemia, in the assay on KM12 colon and with SF-539 CNS was more than 100 µM each time.

`COc1c(O)c2c(=O)cc(OC)c3c4c(OC)cc(=O)c5c(O)c(OC)c6c(c(c1C(C(C)O)C6C(C)O)c23)c54` (configuration not stated): the TGI was found to be 2.66 µM in the assay with A549 NSCLC; 0.842 µM in the assay with CAKI-1 renal; 1.67 µM in the assay with HL-60(TB) leukemia; 3.43 µM with KM12 colon; 2.11 µM in the assay on SF-539 CNS.
